Calls of active or inactive are those of the source. For most assays here, no stated cut-off is given here; in the data, actives have a measured IC50 and inactives only a lower limit.
Columns and labels:
Assay type in all cases: functional
Caspase-3 = molecular target: T1, Caspase-3 (Homo sapiens, UniProt P42574);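 further: Dose-response selectivity test against caspase-3 for candidate inhibitors of sentrin-specific proteases (SENPs)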
T1 sequence (P42574 whole entry): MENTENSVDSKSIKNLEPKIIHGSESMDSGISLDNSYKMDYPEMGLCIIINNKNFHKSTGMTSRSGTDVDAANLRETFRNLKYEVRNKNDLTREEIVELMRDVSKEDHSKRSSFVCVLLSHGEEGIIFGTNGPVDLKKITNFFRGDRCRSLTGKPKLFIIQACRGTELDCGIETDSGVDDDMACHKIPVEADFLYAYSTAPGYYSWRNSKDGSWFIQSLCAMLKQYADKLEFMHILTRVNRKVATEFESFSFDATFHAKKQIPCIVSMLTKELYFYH

[1] = molecular target: T2, Sentrin-specific protease 7 (Homo sapiens, UniProt Q9BQF6);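 further: Luminescence-based dose-response confirmation of ultra-high-throughput screening hits, measuring inhibition of SENP7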
T2 sequence (Q9BQF6 whole entry): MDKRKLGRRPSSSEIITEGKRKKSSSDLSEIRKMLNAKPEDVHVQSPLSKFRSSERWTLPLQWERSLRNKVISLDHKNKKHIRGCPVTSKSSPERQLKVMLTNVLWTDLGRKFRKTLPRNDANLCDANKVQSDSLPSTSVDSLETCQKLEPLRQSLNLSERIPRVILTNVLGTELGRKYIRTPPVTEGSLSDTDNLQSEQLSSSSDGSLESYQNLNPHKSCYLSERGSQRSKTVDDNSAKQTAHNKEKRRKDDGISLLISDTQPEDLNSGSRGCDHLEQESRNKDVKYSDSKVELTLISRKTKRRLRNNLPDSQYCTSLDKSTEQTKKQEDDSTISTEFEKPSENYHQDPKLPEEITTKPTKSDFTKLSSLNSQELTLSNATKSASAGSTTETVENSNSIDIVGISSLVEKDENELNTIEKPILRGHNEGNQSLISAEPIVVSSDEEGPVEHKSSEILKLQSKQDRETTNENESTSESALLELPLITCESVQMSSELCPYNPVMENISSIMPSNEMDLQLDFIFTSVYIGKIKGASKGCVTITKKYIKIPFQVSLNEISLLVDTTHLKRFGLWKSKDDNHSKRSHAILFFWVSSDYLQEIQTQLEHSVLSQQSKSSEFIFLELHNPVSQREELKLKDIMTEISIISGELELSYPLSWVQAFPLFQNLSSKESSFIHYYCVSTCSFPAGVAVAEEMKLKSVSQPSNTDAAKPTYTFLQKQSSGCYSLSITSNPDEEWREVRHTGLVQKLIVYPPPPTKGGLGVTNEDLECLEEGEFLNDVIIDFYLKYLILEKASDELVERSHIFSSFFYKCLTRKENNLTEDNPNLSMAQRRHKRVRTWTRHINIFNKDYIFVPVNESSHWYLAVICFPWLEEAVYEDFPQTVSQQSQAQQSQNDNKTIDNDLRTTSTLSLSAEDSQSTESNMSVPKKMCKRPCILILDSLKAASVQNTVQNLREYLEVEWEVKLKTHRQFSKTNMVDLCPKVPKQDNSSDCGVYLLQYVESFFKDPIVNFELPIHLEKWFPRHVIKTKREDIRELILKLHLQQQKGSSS

[2] = molecular target: T3, Sentrin-specific protease 6 (Homo sapiens, UniProt Q9GZR1);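 further: Luminescence-based dose-response confirmatory assay of SENP6 inhibition, following up an ultra-high-throughput screen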
T3 sequence (Q9GZR1 whole entry): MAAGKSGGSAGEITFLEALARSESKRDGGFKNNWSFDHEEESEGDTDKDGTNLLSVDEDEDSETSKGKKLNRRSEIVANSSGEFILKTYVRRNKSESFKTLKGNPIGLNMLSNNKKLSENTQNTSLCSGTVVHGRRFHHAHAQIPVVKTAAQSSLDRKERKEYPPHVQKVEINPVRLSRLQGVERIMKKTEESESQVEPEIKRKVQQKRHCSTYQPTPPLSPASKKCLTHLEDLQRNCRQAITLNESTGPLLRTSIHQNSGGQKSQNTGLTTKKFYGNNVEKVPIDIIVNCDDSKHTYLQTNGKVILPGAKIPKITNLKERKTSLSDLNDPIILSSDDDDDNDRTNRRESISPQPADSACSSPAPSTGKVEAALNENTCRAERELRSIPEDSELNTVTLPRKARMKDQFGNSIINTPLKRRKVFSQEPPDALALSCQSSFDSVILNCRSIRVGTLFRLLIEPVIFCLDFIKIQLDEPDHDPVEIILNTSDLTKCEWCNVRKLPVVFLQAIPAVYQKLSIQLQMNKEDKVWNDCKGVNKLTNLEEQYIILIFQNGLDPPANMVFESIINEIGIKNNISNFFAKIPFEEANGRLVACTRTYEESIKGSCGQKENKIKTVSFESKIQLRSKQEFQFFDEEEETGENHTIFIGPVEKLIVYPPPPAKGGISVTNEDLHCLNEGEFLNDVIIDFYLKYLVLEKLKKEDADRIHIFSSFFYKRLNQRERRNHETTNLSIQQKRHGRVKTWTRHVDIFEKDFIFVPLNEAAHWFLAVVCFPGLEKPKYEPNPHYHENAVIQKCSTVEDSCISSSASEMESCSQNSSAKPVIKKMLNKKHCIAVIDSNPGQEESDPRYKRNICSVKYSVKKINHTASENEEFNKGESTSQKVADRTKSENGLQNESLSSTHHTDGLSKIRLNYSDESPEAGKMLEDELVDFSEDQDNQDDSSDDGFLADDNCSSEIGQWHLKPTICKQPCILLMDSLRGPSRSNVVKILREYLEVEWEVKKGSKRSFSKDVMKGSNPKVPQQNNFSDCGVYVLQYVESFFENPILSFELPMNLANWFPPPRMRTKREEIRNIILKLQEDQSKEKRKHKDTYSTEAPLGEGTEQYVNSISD

[3] = molecular target: T4, Sentrin-specific protease 8 (Homo sapiens, UniProt Q96LD8);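 further: luminescence read-out of SENP8 inhibition, dose-response confirmation following an ultra-high-throughput screen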
T4 sequence (Q96LD8 whole entry): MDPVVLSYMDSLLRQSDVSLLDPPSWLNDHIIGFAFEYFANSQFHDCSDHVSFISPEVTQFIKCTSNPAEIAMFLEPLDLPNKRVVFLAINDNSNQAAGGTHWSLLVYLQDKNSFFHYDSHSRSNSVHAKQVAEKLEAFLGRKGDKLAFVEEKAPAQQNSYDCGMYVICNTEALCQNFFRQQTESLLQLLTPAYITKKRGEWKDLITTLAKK

[4] = molecular target: T5, High affinity choline transporter 1 (Homo sapiens, UniProt Q9GZV3); assay: CHT inhibitors, dose response, cell-based, 5-point CRC, membrane potential dye (AID 504840)
T5 sequence (Q9GZV3 whole entry): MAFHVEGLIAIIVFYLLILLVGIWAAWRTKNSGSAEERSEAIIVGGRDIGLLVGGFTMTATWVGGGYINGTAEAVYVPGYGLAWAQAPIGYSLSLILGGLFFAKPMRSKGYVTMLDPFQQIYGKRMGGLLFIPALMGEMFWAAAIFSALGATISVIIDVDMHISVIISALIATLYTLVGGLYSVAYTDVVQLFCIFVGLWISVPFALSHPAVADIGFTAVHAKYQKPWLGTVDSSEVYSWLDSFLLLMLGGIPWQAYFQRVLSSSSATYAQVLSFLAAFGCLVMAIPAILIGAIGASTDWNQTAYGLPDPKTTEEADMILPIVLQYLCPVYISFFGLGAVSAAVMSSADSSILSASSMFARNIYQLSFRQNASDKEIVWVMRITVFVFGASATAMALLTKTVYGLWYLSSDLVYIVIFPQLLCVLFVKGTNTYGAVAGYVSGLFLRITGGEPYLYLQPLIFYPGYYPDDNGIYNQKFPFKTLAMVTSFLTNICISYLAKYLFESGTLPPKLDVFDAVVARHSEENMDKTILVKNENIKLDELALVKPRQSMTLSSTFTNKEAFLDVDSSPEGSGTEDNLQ

[5] = molecular target: T5, High affinity choline transporter 1; assay: CHT inhibitors, dose response, cell-based, 10-point CRC, membrane potential dye (AID 588401);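 further: membrane potential dye fluorescence of choline-evoked depolarization via CHT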

Measured: IC50

Cn1c(SCc2ccc(C#N)cc2Cl)nc2ccccc21
active: Caspase-3 8.4 µM | [1] 4.57 µM | [2] 10.8 µM | [3] 14.8 µM | [4] 3.99 µM | [5] 3.4 µM

From ChEMBL document CHEMBL1201862, “PubChem BioAssay data set” (2004)
